# The source made the active and inactive calls. The calls are words filed in the database; no cut-off is given here.
# Legend:
# Isocitrate lyase = Isocitrate lyase (Candida albicans, UniProt Q9P8Q7); assay: Inhibition of Candida albicans ICL assessed as formation of glyoxylate phenylhydrazone by spectrophotometry
# Salmonella typhimurium = assay: Antibacterial activity against Salmonella Typhimurium ATCC 14028 after 24 hrs by broth dilution method; type: functional, Salmonella enterica subsp. enterica serovar Typhimurium; settings: Salmonella enterica, ATCC 14028, 24 h
# Proteus vulgaris = assay: Antibacterial activity against Proteus vulgaris ATCC 3851 after 24 hrs by broth dilution method; type: functional; settings: ATCC 3851, 24 h
# Micrococcus luteus = assay: Antibacterial activity against Micrococcus luteus IFC 12708 after 24 hrs by broth dilution method; type: functional; settings: IFC 12708, 24 h
# [1] = tested on: Trichophyton mentagrophytes; assay: Antifungal activity against Trichophyton mentagrophytes IFO 40996 at 100 ug/ml after 2 weeks; type: functional, organism-based
# Aspergillus fumigatus = assay: Antifungal activity against Aspergillus fumigatus HIC 6094 at 100 ug/ml after 2 weeks; type: functional, organism-based
# Candida albicans = assay: Antifungal activity against Candida albicans ATCC 10231 at 100 ug/ml after 2 weeks; type: functional, organism-based
# Trichophyton rubrum = assay: Antifungal activity against Trichophyton rubrum IFO 9185 at 100 ug/ml after 2 weeks; type: functional, organism-based
# Bacillus subtilis = assay: Antibacterial activity against Bacillus subtilis ATCC 6633 after 24 hrs by broth dilution method; type: functional; settings: ATCC 6633, 24 h
# [2] = Inhibition of porcine cerebral cortex Na+/K+ ATPase by spectrophotometry; type: tissue-based, Sus scrofa
# Chain of Isocitrate lyase (Q9P8Q7 whole entry): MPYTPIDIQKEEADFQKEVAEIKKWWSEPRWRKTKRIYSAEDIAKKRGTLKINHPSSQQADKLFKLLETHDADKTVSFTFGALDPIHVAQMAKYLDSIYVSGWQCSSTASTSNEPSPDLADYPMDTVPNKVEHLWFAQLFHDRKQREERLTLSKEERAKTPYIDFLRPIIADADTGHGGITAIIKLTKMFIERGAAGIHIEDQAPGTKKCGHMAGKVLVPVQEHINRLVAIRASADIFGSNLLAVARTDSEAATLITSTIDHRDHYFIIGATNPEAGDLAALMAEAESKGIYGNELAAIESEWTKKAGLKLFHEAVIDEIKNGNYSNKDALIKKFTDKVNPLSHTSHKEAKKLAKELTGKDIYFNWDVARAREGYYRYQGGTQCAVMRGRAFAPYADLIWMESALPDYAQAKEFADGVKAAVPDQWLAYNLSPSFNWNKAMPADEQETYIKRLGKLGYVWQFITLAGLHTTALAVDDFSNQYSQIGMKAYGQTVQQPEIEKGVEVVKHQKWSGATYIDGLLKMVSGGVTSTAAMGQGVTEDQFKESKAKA
compound,measurement,setting,value
CC(C)=C[C@H](O)[C@@H](O)/C(C)=C/CC/C(C)=C/CC[C@]1(C)CCc2cc(O)cc(C)c2O1 [SARGACHROMANOL E],IC50,Isocitrate lyase,> 467 µM
CC(C)=CC(=O)[C@@H](O)/C(C)=C/CC/C(C)=C/CC[C@]1(C)CCc2cc(O)cc(C)c2O1 [SARGACHROMANOL K],IC50,Isocitrate lyase,> 469 µM
CC(C)=CC(C(=O)O)/C(C)=C/CC/C(C)=C/CC[C@]1(C)CCc2cc(O)cc(C)c2O1 (stereo partly drawn) [SARGACHROMANOL O],IC50,Isocitrate lyase,> 469 µM
CC(C)=C[C@@H](O)C(=O)/C(C)=C/CC/C(C)=C/CC[C@]1(C)CCc2cc(O)cc(C)c2O1 [SARGACHROMANOL G],IC50,Isocitrate lyase,> 469 µM
CC(C)=C/C(C=O)=C(\C)CCC/C(C)=C/CC[C@]1(C)CCc2cc(O)cc(C)c2O1 [SARGACHROMANO N],IC50,Isocitrate lyase,> 487 µM
C/C(C=O)=C\CC/C(C)=C/CC[C@]1(C)CCc2cc(O)cc(C)c2O1 [SARGACHROMANOL A],IC50,Isocitrate lyase,185 µM
C/C(=C\CC[C@]1(C)CCc2cc(O)cc(C)c2O1)C/C=C\C(C)C(=O)[C@H](O)CC(C)C (stereo partly drawn) [SARGACHROMANOL H],IC50,Isocitrate lyase,> 467 µM
CC(C)=C/C(C=O)=C(/C)CCC/C(C)=C/CC[C@]1(C)CCc2cc(O)cc(C)c2O1 [SARGACHROMANOL M],IC50,Isocitrate lyase,173 µM
CC(C)=C[C@@H](O)C(=O)C(C)CCC/C(C)=C/CC[C@]1(C)CCc2cc(O)cc(C)c2O1 (stereo partly drawn) [SARGACHROMANOL I],IC50,Isocitrate lyase,> 467 µM
CC(C)=C[C@@H](O)[C@@H](O)/C(C)=C/CC/C(C)=C/CC[C@]1(C)CCc2cc(O)cc(C)c2O1 [SARGACHROMANO D],IC50,Isocitrate lyase,> 467 µM
CC1(C)S[C@@H]2[C@H](NC(=O)[C@H](N)c3ccccc3)C(=O)N2[C@H]1C(=O)O [AMPICILLIN],MIC,Salmonella typhimurium,0.78 mg/L
same,MIC,Proteus vulgaris,0.78 mg/L
same,MIC,Micrococcus luteus,0.78 mg/L
same,inhibition,[1],inactive
same,inhibition,Aspergillus fumigatus,inactive
same,inhibition,Candida albicans,inactive
same,inhibition,Trichophyton rubrum,inactive
same,MIC,Bacillus subtilis,0.78 mg/L
COC(/C(C)=C/CC/C(C)=C/CC[C@]1(C)CCc2cc(O)cc(C)c2O1)[C@H](O)C=C(C)C (stereo partly drawn) [SARGACHROMANOL F],IC50,Isocitrate lyase,> 452 µM
C[C@@H]1O[C@@H](O[C@H]2C[C@@H](O)[C@]3(CO)[C@H]4[C@H](O)C[C@]5(C)[C@@H](C6=CC(=O)OC6)CC[C@]5(O)[C@@H]4CC[C@]3(O)C2)[C@H](O)[C@H](O)[C@H]1O [OUABAIN],IC50,[2],4.6 µM
same,inhibition,[1],inactive
same,inhibition,Aspergillus fumigatus,inactive
same,inhibition,Candida albicans,inactive
same,inhibition,Trichophyton rubrum,inactive
C/C(=C\CC/C(C)=C/CC[C@]1(C)CCc2cc(O)cc(C)c2O1)CO [SARGACHROMANOL B],IC50,Isocitrate lyase,> 581 µM
CC(C)=C[C@@H]1C(=O)C(C)=C[C@H]1C/C(C)=C/CC[C@]1(C)CCc2cc(O)cc(C)c2O1 [SARGACHROMANOL P],IC50,Isocitrate lyase,149 µM
C/C(=C\CC[C@]1(C)CCc2cc(O)cc(C)c2O1)CCCC(C)C(=O)[C@@H](O)CC(C)C (stereo partly drawn) [SARGACHROMANOL J],IC50,Isocitrate lyase,> 464 µM
CC(C)=CC[C@@H](O)/C(C)=C/CC/C(C)=C/CC[C@]1(C)CCc2cc(O)cc(C)c2O1 [SARGACHROMANOL C],IC50,Isocitrate lyase,> 485 µM
CC(C)=CC(CO)/C(C)=C/CC/C(C)=C/CC[C@]1(C)CCc2cc(O)cc(C)c2O1 (stereo partly drawn) [SARGACHROMANOL L],IC50,Isocitrate lyase,117 µM
O=C(O)CC[N+](=O)[O-],inhibition,[1],inactive
same,inhibition,Aspergillus fumigatus,inactive
same,inhibition,Candida albicans,inactive
same,inhibition,Trichophyton rubrum,inactive

# Source: ChEMBL document CHEMBL1759859, “Sargachromanols as inhibitors of Na+/K+ ATPase and isocitrate lyase” (Bioorg Med Chem Lett, 2011)
